The subject of test [1] is IL-2 stimulated STAT5 phosphorylation on Tyr694 (JAK1/3). Put plainly: JAK1/3 cellular target modulation: IL-2 stimulated phospho-STAT5 in human PBMC. It counts as cell-based. Conditions: IL-2 25 ng/ml, read-out: IL2-STAT5 IC50. In outline:
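Thawed human PBMC (200,000/well) preincubated with compound 1 h at 37°C, then stimulated with IL-12 1.7 ng/ml for 25 min, IFNγ 10 ng/ml for 10 min, or IL-2 25 ng/ml for 5 min. Lysate phospho-STAT4 Tyr693 and phospho-STAT5 Tyr694 read by MSD; phospho-STAT1 Tyr701 by sandwich ELISA.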

The next test has as its target T1, Tyk-2 (Homo sapiens, UniProt P29597).
T1 construct: purchased Thermo Fisher Scientific (SelectScreen service)
Put plainly: Tyk-2 enzyme activity assay (Thermo Fisher Selectscreen, Z-lyte). The class given is biochemical. Conditions: read-out: Tyk-2 Inhibition IC50. In outline: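 Z-lyte FRET assay with 3.75-15 ng TYK2 and 2 μM Tyr 03 peptide in 50 mM HEPES pH 7.0, 10 mM MgCl2, 1 mM EGTA, 0.01% BRIJ-35. Reaction ran one hour before development reagent was added. Compounds were tested in an 11-point dose-response; IC50 came from a 4-parameter logistic fit of emission ratio, normalised to no-enzyme and 2% DMSO vehicle controls.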

Another test has as its target T2, JAK3 (a.a. 781-1124) (Homo sapiens, UniProt P52333).
T2 construct: JAK3 (a.a. 781-1124, ThermoFisher); purchased ThermoFisher
The test is described as follows: JAK3 enzyme activity assay (SRCtide phosphorylation, Caliper). The class given is biochemical. Conditions: 1 uM ATP; read-out: JAK3 Inhibition IC50. In outline: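 Kinase reactions used 2.5 nM JAK3 (aa 781-1124), 1 μM FAM-SRCtide and 1 uM ATP in HEPES pH 7.5, MgCl2, BSA, Tween-20, 2% DMSO. Incubation was 40 min at room temperature, stopped with EDTA. Phospho/unphospho peptide separated by Caliper mobility shift; IC50 from 11-point 3-fold 4-parameter fits.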

The target in the next test is T3, JAK1 (Homo sapiens, UniProt P23458).
T3 construct: purchased Thermo Fisher Scientific (SelectScreen service)
T3 sequence (P23458 whole entry): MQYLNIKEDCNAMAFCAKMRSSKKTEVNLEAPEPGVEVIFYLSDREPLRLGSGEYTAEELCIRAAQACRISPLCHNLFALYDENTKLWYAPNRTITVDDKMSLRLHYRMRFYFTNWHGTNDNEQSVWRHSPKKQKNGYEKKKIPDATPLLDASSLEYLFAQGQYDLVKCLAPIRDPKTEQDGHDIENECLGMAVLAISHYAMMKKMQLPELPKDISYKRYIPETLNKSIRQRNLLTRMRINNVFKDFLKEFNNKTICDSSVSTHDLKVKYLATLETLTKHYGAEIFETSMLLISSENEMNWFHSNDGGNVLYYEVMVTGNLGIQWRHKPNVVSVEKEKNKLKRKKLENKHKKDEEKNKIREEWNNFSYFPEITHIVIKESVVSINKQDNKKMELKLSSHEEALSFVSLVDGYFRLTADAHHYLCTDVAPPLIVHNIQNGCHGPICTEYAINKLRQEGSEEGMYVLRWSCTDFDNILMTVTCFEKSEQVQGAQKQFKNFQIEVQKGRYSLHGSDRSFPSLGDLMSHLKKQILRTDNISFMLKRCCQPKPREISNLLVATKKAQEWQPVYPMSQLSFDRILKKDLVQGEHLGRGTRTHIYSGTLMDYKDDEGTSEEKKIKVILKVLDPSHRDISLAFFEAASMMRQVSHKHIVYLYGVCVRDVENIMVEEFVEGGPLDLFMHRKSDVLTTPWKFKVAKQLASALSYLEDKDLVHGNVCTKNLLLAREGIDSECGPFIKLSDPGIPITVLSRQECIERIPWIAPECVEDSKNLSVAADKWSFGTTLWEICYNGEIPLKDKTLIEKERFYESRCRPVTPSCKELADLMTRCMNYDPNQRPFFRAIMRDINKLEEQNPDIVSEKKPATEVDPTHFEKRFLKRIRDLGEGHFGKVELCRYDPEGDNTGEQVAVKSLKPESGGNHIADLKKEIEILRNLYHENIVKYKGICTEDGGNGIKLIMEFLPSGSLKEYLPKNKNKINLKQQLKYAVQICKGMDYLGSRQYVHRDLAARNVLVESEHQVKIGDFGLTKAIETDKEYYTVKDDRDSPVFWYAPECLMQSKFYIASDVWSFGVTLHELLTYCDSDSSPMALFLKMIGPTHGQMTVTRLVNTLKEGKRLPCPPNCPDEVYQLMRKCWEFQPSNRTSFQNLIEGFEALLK
The test is described as follows: JAK1 enzyme activity assay (Thermo Fisher Selectscreen, Z-lyte). It counts as biochemical. Conditions: read-out: JAK1 Inhibition IC50. A digest of the protocol:
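Z-lyte FRET kinase assay with 21.2-91.5 ng JAK1 and 2 μM Tyr 06 peptide in 50 mM HEPES pH 7.0, 10 mM MgCl2, 1 h reaction before development reagent. Background without enzyme, uninhibited signal with 2% DMSO vehicle; 11-point dose-response, IC50 from 4-parameter logistic fit of emission ratio.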

T1 sequence (P29597 whole entry): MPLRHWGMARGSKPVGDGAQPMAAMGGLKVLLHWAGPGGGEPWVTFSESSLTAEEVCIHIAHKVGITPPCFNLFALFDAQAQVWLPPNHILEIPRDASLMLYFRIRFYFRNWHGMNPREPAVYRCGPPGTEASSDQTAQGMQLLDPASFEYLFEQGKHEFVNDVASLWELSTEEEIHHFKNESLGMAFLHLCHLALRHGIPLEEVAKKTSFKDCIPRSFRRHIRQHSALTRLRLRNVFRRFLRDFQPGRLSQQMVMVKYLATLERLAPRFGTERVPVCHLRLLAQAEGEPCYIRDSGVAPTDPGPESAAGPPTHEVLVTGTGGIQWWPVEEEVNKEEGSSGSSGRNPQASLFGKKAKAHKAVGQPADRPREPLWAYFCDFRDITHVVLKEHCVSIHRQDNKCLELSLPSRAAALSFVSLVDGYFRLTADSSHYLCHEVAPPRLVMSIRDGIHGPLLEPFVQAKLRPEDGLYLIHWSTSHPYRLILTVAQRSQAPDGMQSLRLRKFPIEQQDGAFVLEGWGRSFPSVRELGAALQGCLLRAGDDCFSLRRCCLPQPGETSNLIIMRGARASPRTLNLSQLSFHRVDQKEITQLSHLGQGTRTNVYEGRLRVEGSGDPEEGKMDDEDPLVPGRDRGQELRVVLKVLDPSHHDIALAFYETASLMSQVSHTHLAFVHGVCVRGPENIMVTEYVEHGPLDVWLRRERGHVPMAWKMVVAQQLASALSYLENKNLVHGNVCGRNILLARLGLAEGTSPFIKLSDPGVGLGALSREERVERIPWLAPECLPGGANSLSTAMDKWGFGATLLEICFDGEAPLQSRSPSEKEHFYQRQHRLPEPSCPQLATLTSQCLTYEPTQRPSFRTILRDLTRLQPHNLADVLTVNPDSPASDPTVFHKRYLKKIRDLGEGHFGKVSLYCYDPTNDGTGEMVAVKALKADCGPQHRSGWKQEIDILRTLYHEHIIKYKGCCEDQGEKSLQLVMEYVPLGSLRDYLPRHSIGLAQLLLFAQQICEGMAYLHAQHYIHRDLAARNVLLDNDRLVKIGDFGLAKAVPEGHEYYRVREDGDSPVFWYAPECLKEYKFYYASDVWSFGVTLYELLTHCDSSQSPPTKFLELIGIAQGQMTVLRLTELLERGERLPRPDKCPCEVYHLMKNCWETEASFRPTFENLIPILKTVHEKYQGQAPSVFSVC
T2 sequence (P52333 781-1124): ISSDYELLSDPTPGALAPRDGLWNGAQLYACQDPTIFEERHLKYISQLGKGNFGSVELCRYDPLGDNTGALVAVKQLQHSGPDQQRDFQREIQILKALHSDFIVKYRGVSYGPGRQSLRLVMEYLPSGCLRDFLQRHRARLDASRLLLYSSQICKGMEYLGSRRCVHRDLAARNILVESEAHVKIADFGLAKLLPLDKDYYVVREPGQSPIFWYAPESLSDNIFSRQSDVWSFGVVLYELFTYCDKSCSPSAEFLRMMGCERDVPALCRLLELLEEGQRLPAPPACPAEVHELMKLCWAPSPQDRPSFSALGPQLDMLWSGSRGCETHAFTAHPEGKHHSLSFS

For orientation: IC50 means the concentration at which inhibition is half-maximal. Take `Cc1nnc(-c2cnc3[nH]ccc3c2N[C@H]2C[C@@H](NS(=O)(=O)c3cccc(C#N)c3)C2)s1` [Example 75, 3-cyano-N-((1s,3s)-3-((5-(5-methyl-1,3,4-thiadiazol-2-yl)-1H-pyrrolo[2,3-b]pyridin-4-yl)amino)cyclobutyl)benzenesulfonamide]: the IC50 in test [1] is at most 100 nM; on Tyk-2, at most 10 nM; on JAK3 (a.a. 781-1124), 10 to 100 nM; at JAK1 it was at most 10 nM.
